Settings: Liquid, Vibrating tube method

CCCCCCC [heptane]
Settings | mass density [kg/m3]
283.15 K, 101 kPa | 692.398
283.15 K, 267.6 kPa | 692.646
283.15 K, 550.8 kPa | 692.799
283.15 K, 878.6 kPa | 693.177
283.15 K, 991.3 kPa | 693.192
283.15 K, 2020.2 kPa | 694.161
283.15 K, 2914.8 kPa | 694.997
283.15 K, 4946.5 kPa | 696.597
283.15 K, 7034.8 kPa | 698.638
283.15 K, 9021.6 kPa | 700.052
283.15 K, 9991.9 kPa | 700.869
283.15 K, 11959 kPa | 702.48
283.15 K, 15011 kPa | 704.783
283.15 K, 18047 kPa | 706.965
283.15 K, 20045 kPa | 708.637
283.15 K, 22056 kPa | 709.841
283.15 K, 25044 kPa | 712
283.15 K, 28046 kPa | 714.05
283.15 K, 30052 kPa | 715.435
283.15 K, 32055 kPa | 716.688
283.15 K, 32971 kPa | 717.342
283.15 K, 33000 kPa | 717.432
283.15 K, 34016 kPa | 718.012
283.15 K, 34960 kPa | 718.734
283.15 K, 37943 kPa | 720.455
283.15 K, 40004 kPa | 721.755
283.15 K, 42058 kPa | 723.102
283.15 K, 44940 kPa | 724.839
283.15 K, 48022 kPa | 726.526
283.15 K, 49996 kPa | 727.851
283.15 K, 51982 kPa | 728.904
283.15 K, 54965 kPa | 730.736
283.15 K, 57949 kPa | 732.407
283.15 K, 59996 kPa | 733.467
283.15 K, 62025 kPa | 734.345
283.15 K, 64998 kPa | 735.98
283.16 K, 65971 kPa | 736.499
288.15 K, 102 kPa | 688.224
288.15 K, 391.3 kPa | 688.682
288.15 K, 554.4 kPa | 688.232
288.15 K, 882.7 kPa | 689.214
288.15 K, 989.1 kPa | 688.618
288.15 K, 2057.5 kPa | 689.559
288.15 K, 2917.8 kPa | 690.931
288.15 K, 5041.4 kPa | 692.738
288.15 K, 7088.8 kPa | 693.96
288.15 K, 9018.6 kPa | 695.614
288.15 K, 10040 kPa | 696.278
288.15 K, 12072 kPa | 698.584
288.15 K, 15001 kPa | 700.836
288.15 K, 17968 kPa | 703.23
288.15 K, 20068 kPa | 704.758
288.15 K, 22020 kPa | 705.649
288.15 K, 25002 kPa | 707.645
288.15 K, 28026 kPa | 709.735
288.15 K, 30035 kPa | 711.006
288.15 K, 32084 kPa | 712.959
288.15 K, 33050 kPa | 713.818
288.15 K, 33096 kPa | 713.93
288.15 K, 34036 kPa | 714.067
288.15 K, 35077 kPa | 714.575
288.15 K, 37993 kPa | 716.378
288.15 K, 40041 kPa | 717.608
288.15 K, 42023 kPa | 718.735
288.15 K, 44979 kPa | 720.398
288.15 K, 48045 kPa | 723.18
288.15 K, 50068 kPa | 724.245
288.15 K, 52032 kPa | 724.841
288.15 K, 55077 kPa | 726.211
288.15 K, 58004 kPa | 729.214
288.15 K, 59988 kPa | 729.723
288.15 K, 61974 kPa | 731.101
288.15 K, 64942 kPa | 731.745
288.15 K, 66025 kPa | 732.751
293.15 K, 100.5 kPa | 683.714
293.15 K, 825.1 kPa | 684.796
293.15 K, 1971.7 kPa | 685.978
293.15 K, 3060.6 kPa | 686.787
293.15 K, 5011 kPa | 688.859
293.15 K, 9042.1 kPa | 692.394
293.15 K, 10036 kPa | 693.252
293.15 K, 11946 kPa | 694.459
293.15 K, 14941 kPa | 697.266
293.15 K, 21987 kPa | 701.769
293.15 K, 27986 kPa | 706.659
293.15 K, 33150 kPa | 710.401
293.15 K, 33151 kPa | 710.425
293.15 K, 34099 kPa | 710.557
293.15 K, 35000 kPa | 711.53
293.15 K, 40081 kPa | 714.898
293.15 K, 42099 kPa | 716.347
293.15 K, 45068 kPa | 718.234
293.15 K, 54966 kPa | 724.479
293.15 K, 58072 kPa | 726.215
293.15 K, 66045 kPa | 730.5
293.16 K, 305.2 kPa | 684.504
293.16 K, 476.4 kPa | 684.708
293.16 K, 1045.2 kPa | 685.167
293.16 K, 7096.8 kPa | 690.796
293.16 K, 17889 kPa | 698.789
293.16 K, 19992 kPa | 701.345
293.16 K, 24983 kPa | 704.2
293.16 K, 29976 kPa | 708.599
293.16 K, 32232 kPa | 710.098
293.16 K, 38026 kPa | 712.948
293.16 K, 48022 kPa | 720.258
293.16 K, 50084 kPa | 721.322
293.16 K, 52032 kPa | 722.789
293.16 K, 60018 kPa | 727.31
293.16 K, 61962 kPa | 728.261
293.16 K, 64991 kPa | 729.973
298.15 K, 102.3 kPa | 679.807
298.15 K, 305.4 kPa | 680.336
298.15 K, 854.5 kPa | 680.896
298.15 K, 1980.9 kPa | 681.933
298.15 K, 3167.8 kPa | 682.97
298.15 K, 5067.6 kPa | 684.841
298.15 K, 7065.3 kPa | 686.383
298.15 K, 10107 kPa | 689.119
298.15 K, 20128 kPa | 696.696
298.15 K, 22004 kPa | 699.062
298.15 K, 25080 kPa | 701.29
298.15 K, 33113 kPa | 707.026
298.15 K, 33924 kPa | 706.971
298.15 K, 38097 kPa | 709.948
298.15 K, 40161 kPa | 711.975
298.15 K, 42028 kPa | 713.324
298.15 K, 45021 kPa | 715.087
298.15 K, 48107 kPa | 717.001
298.15 K, 50068 kPa | 718.317
298.15 K, 55016 kPa | 721.123
298.15 K, 57931 kPa | 723.027
298.15 K, 59914 kPa | 724.031
298.15 K, 62036 kPa | 725.393
298.15 K, 65018 kPa | 726.954
298.16 K, 493.7 kPa | 680.581
298.16 K, 1012.6 kPa | 680.891
298.16 K, 9120.9 kPa | 688.48
298.16 K, 11970 kPa | 689.977
298.16 K, 15220 kPa | 693.294
298.16 K, 17984 kPa | 694.869
298.16 K, 28040 kPa | 703.578
298.16 K, 30089 kPa | 704.725
298.16 K, 32034 kPa | 706.093
298.16 K, 33093 kPa | 706.936
298.16 K, 35217 kPa | 707.884
298.16 K, 52020 kPa | 719.461
298.16 K, 66118 kPa | 727.501
303.15 K, 100.7 kPa | 675.559
303.15 K, 304.1 kPa | 675.598
303.15 K, 498.9 kPa | 675.77
303.15 K, 900.6 kPa | 675.904
303.15 K, 979.1 kPa | 676.053
303.15 K, 1977.6 kPa | 677.27
303.15 K, 4930.4 kPa | 680.06
303.15 K, 11975 kPa | 686.61
303.15 K, 15044 kPa | 689.15

Source: the NIST ThermoML archive (doi:10.1021/je5010214)
